“And” between values parts separate entries of the source, which are not always exact repeats. Identical values can stand only once. Like-named read-outs stand apart in the source and are kept apart here.

In test [1] the test system is α7 nAChR. The following applies: cited from earlier work.
Another test has as its system other nAChR tested. The following applies: cited from earlier work.
The next test has as its system human α7. The following applies: cited from earlier work.
Test [2] addresses T1, 5HT3 receptors (Homo sapiens, UniProt P46098).
T1 sequence (P46098 24-478): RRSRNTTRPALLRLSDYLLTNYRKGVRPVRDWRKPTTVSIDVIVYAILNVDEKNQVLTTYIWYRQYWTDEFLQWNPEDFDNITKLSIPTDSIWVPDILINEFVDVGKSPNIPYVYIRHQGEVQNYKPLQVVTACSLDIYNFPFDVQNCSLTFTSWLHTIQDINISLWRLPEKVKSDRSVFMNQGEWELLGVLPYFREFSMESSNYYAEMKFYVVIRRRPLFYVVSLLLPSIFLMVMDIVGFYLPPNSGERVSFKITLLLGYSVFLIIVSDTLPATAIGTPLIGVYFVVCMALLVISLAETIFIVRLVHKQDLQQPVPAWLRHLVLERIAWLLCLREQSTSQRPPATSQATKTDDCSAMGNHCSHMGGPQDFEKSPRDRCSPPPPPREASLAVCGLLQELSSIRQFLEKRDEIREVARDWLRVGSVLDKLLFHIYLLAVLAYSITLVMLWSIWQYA
The following applies: cited from earlier work.

The test system of test [3] is rat brain membrane α7 sites. The settings on record: cited from earlier work.
Test [4] has as its target T1, 5HT3 receptors. The following applies: cited from earlier work. This is another data set of the same source.
For test [5], the target named is T2, α4β2 nAChR (Homo sapiens, UniProt P17787+P43681). The test can be described thus: cell-based. The class given is cell-based.
The target of test [6] is T2, α4β2 nAChR. It is filed as cell-based. The following applies: 100 µM coapplied with 30 µM ACh.
Test [7] has as its target T3, muscle type (α1β1εδ) nAChR (Homo sapiens, UniProt P02708+Q04844+Q07001). It is filed as cell-based. The following applies: 100 µM; normalized to ACh maximum; detection threshold 0.5%.
In test [8] the target is T3, muscle type (α1β1εδ) nAChR. It is filed as cell-based. The following applies: 100 µM coapplied with 3 µM ACh.
Test [9] addresses T1, 5HT3 receptors. The class given is cell-based. The settings on record: 100 µM; normalized to maximal serotonin response; detection threshold 5%.
In test [10] the target is T1, 5HT3 receptors. It is filed as cell-based. The settings on record: 100 µM coapplied with 10 µM serotonin.
In a further test the test system is α9 nAChR. The settings on record: ref Papke et al., 1996; Verbitsky et al., 2000; cited from earlier work.
In test [11] the target is α7 nAChR (Homo sapiens, UniProt P36544).
In a further test the target is α3β4 nAChR (Homo sapiens, UniProt P30926+P32297).
The test system of the next test is rat α7 nAChR. The settings on record: X. laevis oocytes; ref Papke et al., 2005b; cited from earlier work.

T2 sequence (P43681 29-627 limits assumed): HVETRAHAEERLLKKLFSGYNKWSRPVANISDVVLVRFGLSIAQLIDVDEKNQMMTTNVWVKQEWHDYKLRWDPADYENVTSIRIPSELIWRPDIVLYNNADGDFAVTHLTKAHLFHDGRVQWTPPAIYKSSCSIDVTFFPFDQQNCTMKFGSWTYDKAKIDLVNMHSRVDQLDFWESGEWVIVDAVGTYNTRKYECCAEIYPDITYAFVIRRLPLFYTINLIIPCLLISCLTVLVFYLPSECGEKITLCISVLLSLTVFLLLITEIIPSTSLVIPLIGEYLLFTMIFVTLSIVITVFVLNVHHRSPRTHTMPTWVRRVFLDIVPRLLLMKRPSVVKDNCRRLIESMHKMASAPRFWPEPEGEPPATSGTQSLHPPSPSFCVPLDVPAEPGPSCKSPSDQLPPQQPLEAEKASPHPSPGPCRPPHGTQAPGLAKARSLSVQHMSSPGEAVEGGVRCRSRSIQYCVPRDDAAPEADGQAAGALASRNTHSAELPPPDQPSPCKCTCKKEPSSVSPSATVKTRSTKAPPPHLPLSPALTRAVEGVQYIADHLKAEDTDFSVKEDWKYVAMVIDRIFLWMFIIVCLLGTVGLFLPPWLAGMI
T2 sequence (P17787 26-502): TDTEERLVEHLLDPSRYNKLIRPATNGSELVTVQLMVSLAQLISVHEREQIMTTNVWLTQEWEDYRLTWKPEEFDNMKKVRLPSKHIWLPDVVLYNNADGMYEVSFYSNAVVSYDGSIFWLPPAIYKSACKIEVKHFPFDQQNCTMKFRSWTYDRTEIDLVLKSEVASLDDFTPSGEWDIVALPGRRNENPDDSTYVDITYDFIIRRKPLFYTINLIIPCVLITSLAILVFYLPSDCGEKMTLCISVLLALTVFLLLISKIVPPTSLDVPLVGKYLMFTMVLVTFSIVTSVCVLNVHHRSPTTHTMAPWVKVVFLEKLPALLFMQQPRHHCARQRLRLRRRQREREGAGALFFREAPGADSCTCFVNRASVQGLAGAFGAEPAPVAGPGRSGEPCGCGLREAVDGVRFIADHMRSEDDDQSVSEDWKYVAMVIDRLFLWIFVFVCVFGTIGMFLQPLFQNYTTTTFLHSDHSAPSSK
Chain of α7 nAChR (Homo sapiens, UniProt P36544) (P36544 23-502): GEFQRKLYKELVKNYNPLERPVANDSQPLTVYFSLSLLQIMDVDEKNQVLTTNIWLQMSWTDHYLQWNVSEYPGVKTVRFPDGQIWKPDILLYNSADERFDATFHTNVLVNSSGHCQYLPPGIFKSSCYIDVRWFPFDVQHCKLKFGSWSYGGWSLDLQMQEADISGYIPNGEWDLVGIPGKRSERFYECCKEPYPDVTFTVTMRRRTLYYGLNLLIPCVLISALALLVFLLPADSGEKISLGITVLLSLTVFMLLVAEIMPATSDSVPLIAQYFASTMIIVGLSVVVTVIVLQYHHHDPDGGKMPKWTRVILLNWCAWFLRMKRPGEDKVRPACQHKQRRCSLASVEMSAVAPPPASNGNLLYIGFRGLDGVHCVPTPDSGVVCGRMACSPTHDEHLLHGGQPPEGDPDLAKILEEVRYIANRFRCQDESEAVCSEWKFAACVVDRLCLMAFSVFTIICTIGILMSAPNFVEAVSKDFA
T3 sequence (P02708 21-457): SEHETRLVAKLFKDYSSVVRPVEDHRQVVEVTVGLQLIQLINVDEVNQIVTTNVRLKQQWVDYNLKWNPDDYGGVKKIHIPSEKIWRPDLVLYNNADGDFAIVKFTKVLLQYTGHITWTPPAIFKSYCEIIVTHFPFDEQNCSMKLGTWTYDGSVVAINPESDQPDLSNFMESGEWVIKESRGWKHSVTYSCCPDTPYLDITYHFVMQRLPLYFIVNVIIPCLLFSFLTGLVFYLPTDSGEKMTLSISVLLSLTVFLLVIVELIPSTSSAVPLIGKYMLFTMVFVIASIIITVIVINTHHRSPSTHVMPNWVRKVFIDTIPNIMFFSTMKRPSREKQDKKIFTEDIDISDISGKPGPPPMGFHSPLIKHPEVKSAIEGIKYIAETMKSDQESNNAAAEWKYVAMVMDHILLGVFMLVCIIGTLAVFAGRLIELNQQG
T3 sequence (P11230 24-501 partner): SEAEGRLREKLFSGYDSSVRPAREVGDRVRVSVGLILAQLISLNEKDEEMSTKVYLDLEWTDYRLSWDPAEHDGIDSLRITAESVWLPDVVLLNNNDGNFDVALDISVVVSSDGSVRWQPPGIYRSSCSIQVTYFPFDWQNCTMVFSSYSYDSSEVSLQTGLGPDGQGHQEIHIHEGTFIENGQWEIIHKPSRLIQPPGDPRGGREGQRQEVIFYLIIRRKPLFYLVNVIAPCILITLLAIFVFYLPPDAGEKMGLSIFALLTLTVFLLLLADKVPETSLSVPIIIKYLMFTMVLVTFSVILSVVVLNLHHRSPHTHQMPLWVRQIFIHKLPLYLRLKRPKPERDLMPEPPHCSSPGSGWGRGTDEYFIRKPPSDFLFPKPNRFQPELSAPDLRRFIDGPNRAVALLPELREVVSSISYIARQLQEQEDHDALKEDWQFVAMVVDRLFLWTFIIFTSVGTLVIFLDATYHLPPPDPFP
T3 sequence (Q04844 21-493): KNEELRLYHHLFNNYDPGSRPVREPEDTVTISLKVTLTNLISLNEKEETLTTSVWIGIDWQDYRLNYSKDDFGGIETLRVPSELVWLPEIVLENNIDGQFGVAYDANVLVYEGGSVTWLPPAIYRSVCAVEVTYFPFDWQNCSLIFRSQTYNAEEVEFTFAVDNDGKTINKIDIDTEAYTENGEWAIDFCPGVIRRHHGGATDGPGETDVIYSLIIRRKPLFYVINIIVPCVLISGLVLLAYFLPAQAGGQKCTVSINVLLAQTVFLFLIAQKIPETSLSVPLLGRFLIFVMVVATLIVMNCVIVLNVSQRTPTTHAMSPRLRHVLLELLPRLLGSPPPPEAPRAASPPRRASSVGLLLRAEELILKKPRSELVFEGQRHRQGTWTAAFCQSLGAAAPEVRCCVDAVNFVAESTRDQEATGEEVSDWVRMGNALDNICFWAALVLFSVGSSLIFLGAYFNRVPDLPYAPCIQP
T3 sequence (Q07001 22-517): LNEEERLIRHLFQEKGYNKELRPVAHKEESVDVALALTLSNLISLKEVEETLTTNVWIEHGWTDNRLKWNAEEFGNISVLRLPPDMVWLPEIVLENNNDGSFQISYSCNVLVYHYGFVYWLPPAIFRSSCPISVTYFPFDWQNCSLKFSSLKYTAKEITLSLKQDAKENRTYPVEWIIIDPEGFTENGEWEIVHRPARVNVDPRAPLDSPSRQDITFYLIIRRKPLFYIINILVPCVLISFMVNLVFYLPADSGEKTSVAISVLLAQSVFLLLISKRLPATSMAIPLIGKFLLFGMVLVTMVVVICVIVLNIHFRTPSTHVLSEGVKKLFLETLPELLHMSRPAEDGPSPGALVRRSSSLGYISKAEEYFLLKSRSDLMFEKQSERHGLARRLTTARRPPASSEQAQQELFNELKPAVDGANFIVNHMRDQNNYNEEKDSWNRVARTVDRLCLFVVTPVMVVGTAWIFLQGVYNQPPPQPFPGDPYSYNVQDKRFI
Chain of α3β4 nAChR (P32297 32-505): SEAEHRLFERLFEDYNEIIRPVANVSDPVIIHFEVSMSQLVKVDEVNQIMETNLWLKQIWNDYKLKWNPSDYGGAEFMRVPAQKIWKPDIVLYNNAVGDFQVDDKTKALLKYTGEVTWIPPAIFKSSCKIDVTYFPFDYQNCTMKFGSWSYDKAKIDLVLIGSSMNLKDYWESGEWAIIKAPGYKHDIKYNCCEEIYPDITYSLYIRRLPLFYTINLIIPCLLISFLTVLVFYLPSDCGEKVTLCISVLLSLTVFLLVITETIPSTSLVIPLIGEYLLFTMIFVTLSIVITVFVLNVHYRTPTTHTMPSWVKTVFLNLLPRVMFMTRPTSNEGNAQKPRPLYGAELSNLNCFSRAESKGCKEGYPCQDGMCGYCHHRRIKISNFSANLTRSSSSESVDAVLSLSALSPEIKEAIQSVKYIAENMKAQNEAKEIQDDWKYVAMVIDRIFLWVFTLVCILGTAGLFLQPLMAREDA
Chain of α3β4 nAChR (P30926 22-498): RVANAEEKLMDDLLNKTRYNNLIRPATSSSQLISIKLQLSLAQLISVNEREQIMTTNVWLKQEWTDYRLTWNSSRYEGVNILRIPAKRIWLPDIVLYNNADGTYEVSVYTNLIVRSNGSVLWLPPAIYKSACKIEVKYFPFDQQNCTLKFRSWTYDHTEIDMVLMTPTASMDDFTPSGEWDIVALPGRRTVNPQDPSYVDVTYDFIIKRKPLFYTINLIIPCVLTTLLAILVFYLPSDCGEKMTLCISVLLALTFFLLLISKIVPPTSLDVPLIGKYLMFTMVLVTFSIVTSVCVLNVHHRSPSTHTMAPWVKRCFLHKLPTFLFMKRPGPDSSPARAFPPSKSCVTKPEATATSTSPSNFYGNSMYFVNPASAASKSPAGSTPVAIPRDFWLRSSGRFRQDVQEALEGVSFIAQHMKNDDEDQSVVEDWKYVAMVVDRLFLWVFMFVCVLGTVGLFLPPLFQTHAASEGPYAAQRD

`CN1C[C@@H]2CN(c3ccc4oc5ccccc5c(=O)c4c3)C[C@@H]2C1` [A-844606]: the “agonist character at α7 (Summary)” value with α7 nAChR [1] was “Partial agonist of a7 with relatively little activation of other nAChR tested. Demonstrated to have antagonist activity for α4β2 and more potently for putative α3β4. Mechanism of antagonism not investigated”. Also, the “activity at other nAChR (Summary)” value in the test on other nAChR tested was “Partial agonist of a7 with relatively little activation of other nAChR tested. Demonstrated to have antagonist activity for α4β2 and more potently for putative α3β4. Mechanism of antagonism not investigated”.
In the case of `COc1ccccc1-c1cccc2cc(C(=O)N[C@H]3CN4CCC3CC4)oc12` [ABBF, N-[(3R)-1-azabicyclo[2.2.2]oct-3-yl]-7-[2-(methoxy)phenyl]-1-benzofuran-2-carboxamide], the “agonist character at human α7 (Summary)” value with human α7 is “Putative full agonist for human α7 (EC50 ≈ 3 µM) and an antagonist for other nAChR tested (IC50 values of 1–8 µM). Mechanism of antagonism not investigated. Bound to 5HT3 receptors with high affinity (60 nM), comparable with rat brain membrane α7 sites (62 nM)”. The EC50 in the test with human α7 (read-out: EC50 human α7) is roughly 3 µM. Moreover, the “affinity for 5HT3 receptors” value on 5HT3 receptors [2] was “Putative full agonist for human α7 (EC50 ≈ 3 µM) and an antagonist for other nAChR tested (IC50 values of 1–8 µM). Mechanism of antagonism not investigated. Bound to 5HT3 receptors with high affinity (60 nM), comparable with rat brain membrane α7 sites (62 nM)”. Moreover, in [3], the “affinity for rat brain membrane α7 sites” value was “Putative full agonist for human α7 (EC50 ≈ 3 µM) and an antagonist for other nAChR tested (IC50 values of 1–8 µM). Mechanism of antagonism not investigated. Bound to 5HT3 receptors with high affinity (60 nM), comparable with rat brain membrane α7 sites (62 nM)”. Further, the “Effects on 5HT3 Receptors” value on 5HT3 receptors [4] was “Antagonist”.
As for `C[N+](C)(C)CCO` [Choline, choline, reference compound], the “α4β2 Activity” value at α4β2 nAChR [5] (100 µM, normalized to ACh maximum, detection threshold 1%) is given as “≈1%”. Also, the “α4β2 response, % of the ACh maximum” value at α4β2 nAChR [5] (3 mM agonist) is 2.3 ± 0.3% and 2%. For the same compound, the “α4β2 Inhibition” value at α4β2 nAChR [6] was “N.S”. In addition, in test [7], the “α1β1εδ Activity” value is on record as “N”. In addition, in test [8], the “α1β1εδ Inhibition” value is “N.S”. Moreover, the “5HT3 Activity” value on 5HT3 receptors [9] is recorded as “N”. Moreover, at 5HT3 receptors [10], the “5HT3 Inhibition” value was “N.S”. Further, in the test on α7 nAChR [1], the “potency for α7, fold lower than that of ACh” value is given as 10 fold. Further, the “activity at heteromeric nAChR (Summary)” value in the test on other nAChR tested (ref Papke et al., 1996, Verbitsky et al., 2000) is “little or no activity”. Moreover, the “activity at α9 nAChR (Summary)” value in the test with α9 nAChR is recorded as “agonist”. On α7 nAChR [11], the response was half-maximal at 243 ± 8 µM (EC50); the “α7 Imax” value amounted to 0.90 ± 0.1; the “α7 potency, fold less potent than ACh” value is “approximately 10 fold”; the “α7 potency, fold lower than related agonists that lack the oxygen group (e.g., ETMA and QN)” value is on record as “at least 10 fold”. In addition, at α3β4 nAChR, the “agonist character at α3β4” value was “too low to be characterized in regard to potency”. Moreover, the “α3β4 Imax” value on α3β4 nAChR (peak current, relative to ACh maximum (ACh constrained to 1)) came to 0.04 ± 0.01.
As for `C[C@H](OC(=O)N[C@@H]1CN2CCC1CC2)c1ccccc1F` [JN403], in the test with α7 nAChR [1], the “α7 efficacy, % of that of ACh” value was “In the X. laevis oocyte experiments, JN403 was a relatively potent partial agonist, with an efficacy of approximately 50% of that of ACh. 5HT3 receptors and other nAChRs were evaluated with calcium flux measurements in transfected cells, and JN403 was antagonist in these experiments”. Besides, in the test on other nAChR tested, the “activity at 5HT3 receptors and other nAChRs (Summary)” value was “In the X. laevis oocyte experiments, JN403 was a relatively potent partial agonist, with an efficacy of approximately 50% of that of ACh. 5HT3 receptors and other nAChRs were evaluated with calcium flux measurements in transfected cells, and JN403 was antagonist in these experiments”. Moreover, the half-maximal inhibitory concentration (IC50) on 5HT3 receptors [4] (read-out: IC50 5HT3 receptors (antagonist)) is roughly 20 µM.
For the compound `O=C(N[C@H]1CN2CCC1CC2)c1ccc(Cl)cc1` [PNU-282987], the Ki in test [3] (read-out: Ki, displacement of MLA binding from rat brain homogenates) is 0.027 µM. Further, the half-maximal inhibitory concentration (IC50) at 5HT3 receptors [4] (read-out: IC50 5HT3 receptors (functional antagonist)) is roughly 5 µM.
Consider `O=C(Oc1ccc(Br)cc1)N1CCN2CCC1CC2` [SSR-180711], for which, in the test on α7 nAChR [1] (binding and voltage-clamp experiments, ref Biton et al., 2007), the “agonist character at α7 (Summary)” value is “A relatively potent partial agonist with selectivity for α7 compared with other nAChR subtypes tested established by binding and voltage-clamp experiments”.
Turning to `c1cncc(C2CCC3CCN2CC3)c1` (stereo not shown) [TC-1698, 2-(3-pyridyl)-1-azabicyclo[3.2.2]nonane], in the test on α7 nAChR [1], the “agonist character at α7 (Summary)” value is listed as “A potent full agonist for α7 nAChR with negligible activation of the heteromeric neuronal nAChR tested but with low-potency partial agonist activity for muscle nAChR. Effective competitive antagonist at α4β2 nAChR”. Moreover, in the test on other nAChR tested, the “activation of the heteromeric neuronal nAChR tested (Summary)” value is listed as “A potent full agonist for α7 nAChR with negligible activation of the heteromeric neuronal nAChR tested but with low-potency partial agonist activity for muscle nAChR. Effective competitive antagonist at α4β2 nAChR”, the “activity at α4β2 nAChR (Summary)” value was “A potent full agonist for α7 nAChR with negligible activation of the heteromeric neuronal nAChR tested but with low-potency partial agonist activity for muscle nAChR. Effective competitive antagonist at α4β2 nAChR” and the “activity for muscle nAChR (Summary)” value was “A potent full agonist for α7 nAChR with negligible activation of the heteromeric neuronal nAChR tested but with low-potency partial agonist activity for muscle nAChR. Effective competitive antagonist at α4β2 nAChR”.
As to `CCN(CC)CCOc1ccc2c(c1)C(=O)c1cc(OCCN(CC)CC)ccc1-2` [Tilorone], the “agonist character at α7 (Summary)” value in the test with α7 nAChR [1] (human α7, rat α7, oocytes, transfected cells, ref Briggs et al., 2008) is reported as “Partial agonist”. The “activity at other nAChR (Summary)” value in the test with other nAChR tested (α4β2, putative α3β4 (IMR-32), ref Briggs et al., 2008) was “antagonist activity for α4β2 and more potently for putative α3β4”.
As to `CN1[C@@H]2CC[C@H]1C[C@@H](OC(=O)c1c[nH]c3ccccc13)C2` [Tropisetron], the “Effects on 5HT3 Receptors” value at 5HT3 receptors [4] (ref Macor et al., 2001, Papke et al., 2005a) was “Competitive antagonist”.
For the compound “cis-1-methyl-2,3,3a,4,5,9b,-hexahydro-1H-pyrrolo[2,3-f]quinoline [ACME]”, the “Imax, % of that of ACh, rat α7 nAChR” value in the test on rat α7 nAChR was “The rigid nicotine analogs ACME and ACME-B were partial agonists for rat α7 nAChR (Imax, 10 and 20% of that of ACh, respectively). ACME-B was 2-fold more potent (EC50 ≈ 26 µM) than the boron-free form ACME. Potential antagonist activity of non-α7 nAChR not investigated”.

These data come from article PMC2999882 (Molecular pharmacology, 2008).
